Literature values in patent US20240023548A1, “TAU-FLUVALINATE COMPOSITIONS” (Adama Makhteshim Ltd., priority 2020, published 2024).

CC(C)[C@@H](Nc1ccc(C(F)(F)F)cc1Cl)C(=O)OC(C#N)c1cccc(Oc2ccccc2)c1 (some centres unmarked) [Tau-fluvalinate, tau-fluvalinate]
Solubility in organic solvents (organic solvents): soluble in organic solvents
Solubility in water (water): low solubility in water
